Assay results reported in patent US10487115B2, “Proteinaceous compounds and uses therefor” (UNIVERSITY OF CANBERRA, priority 2016, dated 2019).
Ends that are not written are not given here. * marks the point of attachment. Myristoyl = CCCCCCCCCCCCCC(=O)*

How the values were obtained:
[1] = test system: cancer stem cell markers (CSV, LSD1p, PKC-θ and PDL1); experiment: Expression of cancer stem cell markers in MDA-MB-231 xenograft cells (confocal microscopy, TNFI/TCFI); assay type: in vivo, Balb-c nude mice; settings: importinib4759 40 mg/kg, docetaxel 4 mg/kg
Procedure: The effect of Importinib4759 on the expression of cancer stem cell markers in MDA-MB-231 xenograft breast cancer cells from Balb-c nude mice was evaluated using confocal laser scanning microscopy.
MDA-MB-231 xenograft breast cancer cells from Balb-c nude mice were treated and prepared as per the method of Example 7. Test compounds included control (saline), docetaxel (4 mg/kg), importinib4759 (40 mg/kg; synthesized in accordance with Example 1) or a combination of importinib4759 (40 mg/kg) and docetaxel (4 mg/kg). The single cell suspensions were fixed with 3.7% formaldehyde and permeabilized with 2% Triton-X-100 and were then probed with primary mouse antibodies to CSV, primary goat antibodies to PDL1 and primary rabbit antibodies to phosphorylated LSD1 (LSD1p; lysine-specific histone demethylase 1A) or PKC-θ followed by the corresponding secondary antibody conjugated to anti mouse Alexa-Fluor 568, anti-goat Alexa-Fluor 633 or anti-rabbit Alexa-Fluor 488. The cell nucleus was stained with anti-fade DAPI. TNFI (Total Nuclear Fluorescence Intensity) or TCFI (Total Cytoplasmic Fluorescence Intensity) values were calculated for at least 20 individual cells per sample. Data shown represent the mean±SE grouped into time point of collection.

[2] = test system: CAF markers (FAP, LSD1 and CCL2); experiment: Expression of CAF markers in MDA-MB-231 xenograft cells (confocal microscopy, TNFI/TCFI); assay type: in vivo, Balb-c nude mice; settings: importinib4759 40 mg/kg, docetaxel 4 mg/kg
Procedure: (§1) The effect of Importinib4759 on the expression of cancer associated fibroblast (CAF) and macrophage in MDA-MB-231 xenograft breast cancer cells from Balb-c nude mice was evaluated using confocal laser scanning microscopy. MDA-MB-231 xenograft breast cancer cells from Balb-c nude mice were treated and prepared as per the method of Example 7. Test compounds included control (saline), docetaxel (4 mg/kg), importinib4759 (40 mg/kg; synthesized in accordance with Example 1) or a combination of importinib4759 (40 mg/kg) and docetaxel (4 mg/kg). The single cell suspensions were fixed with 3.7% formaldehyde and permeabilized with 2% Triton-X-100 and were then probed with a set of CAF signature antibodies [primary mouse antibodies to FAP (fibroblast activation protein), primary goat antibodies to CCL2 (chemokine (C-C motif) ligand 2) and primary rabbit antibodies to LSD1 (lysine-specific histone demethylase 1A; a target of PKC-θ)] or M1 macrophage markers [primary mouse antibodies to CCR[…] chemokine receptor type 7), primary goat antibodies to CD38 (cluster of differentiation 38) and primary rabbit antibodies to LSD1p (a target of PKC-θ)], followed by the corresponding secondary antibody conjugated to anti mouse Alexa-Fluor 568, anti-goat Alexa-Fluor 633 or anti-rabbit Alexa-Fluor 488. […] TNFI or TCFI values were calculated for at least 20 individual cells per sample. […]

[3] = test system: M1 macrophage markers (LSD1p, CCR7 and CD38); experiment: Expression of M1 macrophage markers in MDA-MB-231 xenograft cells (confocal microscopy, TNFI/TCFI); assay type: in vivo, Balb-c nude mice; settings: importinib4759 40 mg/kg, docetaxel 4 mg/kg
Procedure: as §1

PKC-θ [4] = molecular target: T1, PKC-θ (Homo sapiens, UniProt Q04759); experiment: Nuclear localization of PKC-θ (PKC-θ-phosphor-T538 antibody) in MCF7 cells treated with peptide inhibitors of other PKC isoforms; assay type: cell-based; settings: 50 μM peptide inhibitor 24 hr, PMA 0.65 ng/mL 60 hr, N-myristoylated
T1 construct: endogenous in cells; host or cells: MCF7
T1 sequence (Q04759 whole entry, canonical isoform): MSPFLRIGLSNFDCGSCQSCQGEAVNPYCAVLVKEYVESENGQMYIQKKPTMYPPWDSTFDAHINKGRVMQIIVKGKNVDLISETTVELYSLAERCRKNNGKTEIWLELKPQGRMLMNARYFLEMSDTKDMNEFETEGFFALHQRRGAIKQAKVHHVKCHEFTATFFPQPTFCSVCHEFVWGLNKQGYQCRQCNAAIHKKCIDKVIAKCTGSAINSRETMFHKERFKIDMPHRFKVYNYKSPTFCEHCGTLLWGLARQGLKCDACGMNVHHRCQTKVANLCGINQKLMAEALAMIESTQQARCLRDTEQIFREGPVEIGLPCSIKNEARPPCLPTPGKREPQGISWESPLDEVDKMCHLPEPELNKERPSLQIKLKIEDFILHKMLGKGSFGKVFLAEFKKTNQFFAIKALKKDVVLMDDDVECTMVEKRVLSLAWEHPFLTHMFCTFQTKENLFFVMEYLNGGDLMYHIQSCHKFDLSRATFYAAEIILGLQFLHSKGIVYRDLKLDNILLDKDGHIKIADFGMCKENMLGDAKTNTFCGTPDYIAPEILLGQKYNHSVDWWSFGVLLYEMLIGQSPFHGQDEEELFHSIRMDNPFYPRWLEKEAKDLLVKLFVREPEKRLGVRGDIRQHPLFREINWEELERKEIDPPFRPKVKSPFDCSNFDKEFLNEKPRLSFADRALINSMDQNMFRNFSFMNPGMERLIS
Procedure: nPKC-β1, nPKC-ε and nPKC-δ peptide inhibitors were designed based on the nuclear localization signal of PKC-β1, PKC-ε and PKC-δ respectively. These peptides were synthesized and N-myristoylated using the method of Example 1.
MCF7 cells were pre-seeded overnight on sterile coverslips in 12 well plates with 1 mL of completed DMEM before inhibiting with 50 μM of nPKC-β1, nPKC-ε or nPKC-δ peptide inhibitor respectively for 24 hr. Inhibitors were not removed when MCF7 cells were stimulated with 0.65 ng/mL of PMA for 60 hr. DEPC-water was used for control (test peptides were dissolved in sterile DEPC-water). After washing with DPBS twice, samples on coverslips were fixed with 4% paraformaldehyde for 10 minutes and stained with PKC-θ-phosphor-T538 primary Antibody and conjugated Alexa-488 secondary Antibody. Cell nucleus was stained with anti-fade DAPI. When samples were dried overnight, Nikon fluorescence microscopy was used to take photos. ImageJ software was used for densimetric analysis. Fn/c was calculated using the formula: Fn/c=(nuclear density-background density)/(cytoplasmic density-background density).

PKC-θ [5] = molecular target: T1, PKC-θ; experiment: Nuclear translocation of PKC-θ in PMA-stimulated MCF7 cells (immunofluorescence, Fn/c); assay type: cell-based; settings: 50 μM peptide 24 hr, then PMA 0.65 ng/mL 60 hr, N-myristoylated peptides, p<0.0001 relative to control
Procedure: MCF7 cells were pre-seeded overnight on sterile coverslips in 12 well plates with 1 mL of completed Dulbecco's modified eagle medium (DMEM) before incubating with 50 μM of importinib4759 (synthesized in accordance with Example 1) and importinib4759_O1 (synthesized in accordance with Example 1) for 24 hr. Test peptides were not removed when MCF7 cells were stimulated with 0.65 ng/mL of phorbol 12-myristate 13-acetate (PMA) for 60 hr. Diethylpyrocarbonate (DEPC)-water was used for control (test peptides were dissolved in sterile DEPC-water). After wash with Dulbecco's phosphate buffered saline (DPBS) twice, samples on coverslips were fixed with 4% paraformaldehyde for 10 minutes and stained with PKC-θ (Cat. SC-212), PKC-θ-Phosphor-T538, PKC-β2, PKC-α, Importin α, or Importin 8 primary Antibody respectively and conjugated Alexa-488 secondary Antibody. Cell nucleus was stained with anti-fade 2-(4-amidinophenyl)-6-indolecarbamidine dihydrochloride (DAPI). When samples were dried overnight, Nikon fluorescence microscopy was used to take photos. ImageJ software was used for densimetric analysis. Fn/c was calculated using the formula: Fn/c=(nuclear density-background density)/(cytoplasmic density-background density).

MDA-MB-231 cells = experiment: CD44hiCD24lo cancer stem cells in MDA-MB-231 model (FACS); assay type: cell-based, human; settings: 50 μM or 100 μM importinib4759, 48 hr, p<0.0001 relative to control
Procedure: (§2) 5×10^4 MDA-MB-231 cells were seeded with 1 mL of complete DMEM in 12 well plates overnight, then importinib4759 (5004 and 100 μM; synthesized in accordance with Example 1) or importinib4759_O1 (2504 and 50 μM; synthesized in accordance with Example 1) were used to treat cells for 48 hr before samples were harvested by trypsinization followed by washing with DPBS containing 2% HI-FBS. FACS staining was performed using anti-human CD44-APC, anti-human CD24-PE, Hoechst, and anti-human EpCAM antibody cocktails. Data was collected from BD FACSLSR-II flow cytometer. Treestar FlowJo was used for data analysis.

MCF7 cells = experiment: CD44hiCD24lo cancer stem cell formation in MCF-IM model (FACS); assay type: cell-based, human; settings: importinib4759 5004 and 100 μM, importinib4759_O1 2504 and 50 μM, 24 hr before PMA 60 hr, p=0.0079 relative to control
Procedure: as §2, with “5×10^4 MCF7” for “5×10^4 MDA-MB-231”, “for 24” for “for 48”, “before stimulation with PMA for 60 hr. Samples” for “before samples”, “2% heat inactivated foetal bovine serum (HI-FBS).” for “2% HI-FBS.”, “staining were” for “staining was”

MDA-MB-231 xenograft = experiment: Balb/c-nude MDA-MB-231 xenograft breast cancer model: tumor volume and cancer stem cell proportion; assay type: in vivo, balb/c-nude mice
Procedure: A Balb/c-nude MDA-MB-231 xenograft breast cancer model was utilized to determine the effect of the importinib peptides alone and in combination with the chemotherapeutic, docetaxel in comparison to a randomized peptide control.
Five week old balb/c-nude mice (n=5 per test compound) were injected with MDA-MB-231 human breast carcinoma cell suspensions (2×10^6 cells in 25 μL PBS mixed with 25 μL of BD Matrigel Matrix) subcutaneously into the right mammary gland. Test compounds in a saline vehicle [4 mg/kg docetaxel; 8 mg/kg, 40 mg/kg and 60 mg/kg importinib4759 or importinib4759_O1 (synthesized in accordance with Example 1); 4 mg/kg docetaxel with 8 mg/kg importinib4759 or importinib4759_O1; 4 mg/kg docetaxel with 40 mg/kg importinib4759 or importinib4759_O1; 4 mg/kg docetaxel with 60 mg/kg importinib4759 or importinib4759_O1; or randomized peptide control] were injected intraperitoneally. Tumor volume was assessed using calipers daily over a period of five weeks following treatment. Animals were sacrificed after the five week period. Tumor grafts were removed using resection and processed into single cell suspensions. The percentage of cancer stem cells was determined using FACS analysis. FACS staining was performed using anti-human CD44-APC, anti-human CD24-PE, Hoechst, and anti-human EpCAM antibody cocktails. Data was collected from BD FACSLSR-II flow cytometer. Treestar FlowJo was used for data analysis. Significance was determined using a one-way ANOVA or Mann-Whitney T-test.

Compound	effect on nuclear localization of PKC-θ (PKC-θ [4])	expression of cancer stem cell markers (CSV, LSD1p, PKC-θ, PDL1) [1]	expression of CAF markers (FAP, LSD1np, CCL2) [2]	expression of M1 macrophage markers (LSD1p, CCR7, CD38; docetaxel result stated for CCR7 and CD38) [3]	also measured
CC(=O)O[C@@]12CO[C@@H]1C[C@H](O)[C@@]1(C)C(=O)[C@H](O)C3=C(C)[C@@H](OC(=O)[C@H](O)[C@@H](NC(=O)OC(C)(C)C)c4ccccc4)C[C@@](O)([C@@H](OC(=O)c4ccccc4)[C@H]21)C3(C)C [docetaxel, reference compound]		increased expression of cancer stem cell markers	significantly increased the expression of CAF markers	unaffected	
KRRLEPPFRPKVK [nPKC-δ]	had no effect				
RKEIDPPFRPKVK-OH (Myristoyl-RKEIDPPFRPKVK-OH; SMILES CCCCCCCCCCCCCC(=O)N[C@@H](CCCNC(=N)N)C(=O)N[C@@H](CCCCN)C(=O)N[C@@H](CCC(=O)O)C(=O)N[C@H](C(=O)N[C@@H](CC(=O)O)C(=O)N1CCC[C@H]1C(=O)N1CCC[C@H]1C(=O)N[C@@H](Cc1ccccc1)C(=O)N[C@@H](CCCNC(=N)N)C(=O)N1CCC[C@H]1C(=O)N[C@@H](CCCCN)C(=O)N[C@H](C(=O)N[C@@H](CCCCN)C(=O)O)C(C)C)[C@@H](C)CC) [Importinib4759, tested N-myristoylated]		significantly abrogated expression of cancer stem cell markers	abrogated expression of CAF markers	augmented	blocking of nuclear PKC-θ (nuclear translocation) (PKC-θ [5]): capable of blocking nuclear PKC-θ; reduction of CD44hiCD24lo cancer stem cells (MDA-MB-231 cells): Significant reduction of cancer stem cells; cancer stem cell (CD44hiCD24lo) formation (MCF7 cells): inhibited; cancer stem cell (CD44highCD24low) population in tumor grafts (MDA-MB-231 xenograft; FACS of resected tumor grafts after five weeks): significantly abrogating the cancer stem cell population; tumor volume in comparison to the control or docetaxel treatment alone (MDA-MB-231 xenograft; intraperitoneal, peptide 8, 40 and 60 mg/kg, docetaxel 4 mg/kg, five weeks): abrogating tumor volume; tumor volume over time (MDA-MB-231 xenograft; intraperitoneal, peptide 8, 40 and 60 mg/kg, docetaxel 4 mg/kg, five weeks, n=5): significantly reduced tumor volume over time

The next lines start with results.

effect on nuclear localization of PKC-θ (PKC-θ [4])	Compound	expression of cancer stem cell markers (CSV, LSD1p, PKC-θ, PDL1) [1]	expression of CAF markers (FAP, LSD1np, CCL2) [2]	expression of M1 macrophage markers (LSD1p, CCR7, CD38; docetaxel result stated for CCR7 and CD38) [3]	also measured
had no effect	KKIKPPFKPRIKTKR (Myristoyl-KKIKPPFKPRIKTKR) [nPKC-ε]				
had no effect	RKEIQPPYKPKAR (Myristoyl-RKEIQPPYKPKAR) [nPKC-β1]				
